# Structures can show the parent of a compound that is named as a salt.
row,melting point,SMILES
1,324 to 330 °C,"Cc1cc(I)ccc1Nc1ccc(Cl)cc1C1=NC(C)(C)CO1 (as salt: salt) [Example 1, [4-Chloro-2-(4,4-Dimethyl-4,5-dihydro-oxazol-2-yl)-phenyl]-(4-iodo-2-methyl-phenyl)-amine]"
2,144.4 to 145.5 °C,"Cc1cc(I)ccc1Nc1c(-c2nnco2)ccc(F)c1F [Example 9, (2,3-Difluoro-6-[1,3,4]oxadiazol-2-yl-phenyl)-(4-iodo-2-methyl-phenyl)-amine]"
3,231.8 to 232.8 °C,"Cc1cc(I)ccc1Nc1c(-c2nnc(S)o2)ccc(F)c1F [Example 10, 5-[3,4-Difluoro-2-(4-iodo-2-methyl-phenylamino)-phenyl]-[1,3,4]oxadiazole-2-thiol]"
